This is an account of results in ChEMBL document CHEMBL3988442, “University of Dundee, Small-Polar-MMV Screening Library” (2021).

The nature of the experiment: In vitro enzyme assay to detect hydrolysis of chlorophenol red-beta-D-[…] directly proportional to the number of Toxoplasma stably expressing beta-galactosidase. The class given is functional, organism-based, Toxoplasma gondii. As to conditions: Toxoplasma gondii.

The IC50 is the midpoint of a concentration-inhibition curve. Read a low IC50 as greater potency. `CCCc1ccc2oc(C(=O)N3CCC(O)CC3)c(C)c2c1` had an IC50 of over 50.1 µM. For `Cc1nnc(NCc2cccc(OCC3CCCO3)c2)c(C#N)c1C` (stereo not drawn), the IC50 is over 50.1 µM.

The compound `O=C(COc1ccc2c(c1)CCC2)NCc1ccco1` gave a concentration for half-maximal inhibition (IC50) of 35.5 µM.

Regarding `CCN(Cc1nonc1C)C(=O)Cn1nc(C(F)(F)F)cc1C1CC1`, the IC50 was over 50.1 µM. For the compound `Cc1cc(=O)n2c3c(cc(S(=O)(=O)NC4CC4)cc13)CCC2`, the IC50 was over 50.1 µM. In the case of `CC(=O)N1CCN(c2ncnc3cc4c(cc23)OCCO4)CC1` it was over 50.1 µM; in that of `CCC(=O)N1CCN(c2ncnc3cc4c(cc23)OCCO4)CC1`, over 50.1 µM. The compound `CC(C)C(=O)N1CCN(c2ncnc3cc4c(cc23)OCCO4)CC1` gave a concentration for half-maximal inhibition (IC50) of over 50.1 µM. In the case of `CCC(=O)N1CCN(c2nc(C)nc3c(C)nn(C)c23)CC1` it was over 50.1 µM; in that of `Cc1nc(N2CCN(C(=O)c3ccncc3)CC2)c2c(n1)c(C)nn2C`, over 50.1 µM.

In turn, `CCn1cc(CN(C)S(=O)(=O)c2ccccc2)cn1` had a half-maximal inhibitory concentration (IC50) of over 50.1 µM. To `Cc1cc(C(=O)NCc2ccco2)nn1C` belongs over 50.1 µM; to `Cc1ccc(CNC(=O)c2cc(C)n(C)n2)o1`, over 50.1 µM.

Compound `COCCNc1cc(C)nn2cnnc12` showed a half-maximal inhibitory concentration (IC50) of over 50.1 µM. Take `CC(=O)Nc1ncc(S(=O)(=O)Nc2ccccc2)s1`: the half-inhibitory concentration (IC50) is over 50.1 µM. To `CC(=O)Nc1ncc(S(=O)(=O)Nc2cccc(F)c2)s1` belongs over 50.1 µM; to `CC(=O)Nc1ncc(S(=O)(=O)Nc2ccccc2F)s1`, 31.2 µM.

`CC(=O)Nc1ncc(S(=O)(=O)Nc2ccc(C)cc2)s1` gave a half-inhibitory concentration (IC50) of over 50.1 µM. In the case of `CC(=O)Nc1ncc(S(=O)(=O)Nc2cccc(C)c2)s1` it was over 50.1 µM; in that of `COc1ccc(NS(=O)(=O)c2cnc(NC(C)=O)s2)cc1`, over 50.1 µM. In the case of `CC(=O)Nc1ncc(S(=O)(=O)Nc2cccc(O)c2)s1` it was over 50.1 µM; in that of `COC(=O)c1ccc(NS(=O)(=O)c2cnc(NC(C)=O)s2)cc1`, over 50.1 µM. The compound `CCOCCCNc1cc(C)nn2cnnc12` had a half-maximal inhibitory concentration (IC50) of over 50.1 µM.

In the case of `Cc1cc(NCCCOC(C)C)c2nncn2n1`, the IC50 was over 50.1 µM. Compound `Cc1nn(C)c2c(=O)n(Cc3ccc(F)cc3)nnc12` had an IC50 of over 50.1 µM.

On to `Cc1nn(C)c2c(=O)n(Cc3ccc(Cl)cc3)nnc12`, for which the IC50 was over 50.1 µM. To `Cc1nn(C)c2c(=O)n(Cc3ccccc3)nnc12` belongs over 50.1 µM; to `Cc1nc(N2CCN(c3ccccc3)CC2)c2c(n1)c(C)nn2C`, over 50.1 µM; to `CCn1c(NCc2cccnc2)nc2c(C)nn(C)c2c1=O`, over 50.1 µM. In the case of `CCn1c(NCc2ccc(OC)cc2)nc2c(C)nn(C)c2c1=O`, the concentration for half-maximal inhibition (IC50) was over 50.1 µM. In turn, `Cc1nn(C)c2c(=O)n(C(C)C)c(NCCc3ccccc3)nc12` showed a 50% inhibitory concentration (IC50) of 36.1 µM. Turning to `CCCn1c(NCCc2ccccc2)nc2c(C)nn(C)c2c1=O`, the IC50 was 31.5 µM. In turn, `CCCn1c(N2CCCCC2)nc2c(C)nn(C)c2c1=O` showed an IC50 of 34.4 µM.

In the case of `CCn1c(SCC(N)=O)nnc1C(C)NC(=O)c1ccc(Cl)cc1` (stereo not drawn), the IC50 is over 50.1 µM.

For the compound `c1cnc(-c2nn3c(CN4CCOCC4)nnc3s2)cn1`, the IC50 was over 50.1 µM.

`Cc1cc(C(=O)Nc2cnn(CC(F)(F)F)c2)nc(N2CCOCC2)n1` had a half-maximal inhibitory concentration (IC50) of over 50.1 µM. As for `Cc1cc(C(=O)Nc2cnn(CC(F)(F)F)c2)nc(N(C)C)n1`, the IC50 is over 50.1 µM. To `Cc1c(NC(=O)c2ccc(Br)cc2)c(C(=O)N(C)C)nn1C` belongs over 50.1 µM; to `COc1ccc(C(=O)Nc2c(C(=O)N(C)C)nn(C)c2C)cc1`, over 50.1 µM; to `Cn1ncc(C(=O)N2CCN(CCS(C)(=O)=O)CC2)c1Cl`, over 50.1 µM. In the case of `O=C(c1ccc(-c2ccc(O)nc2)s1)N1CCCCCC1` it was over 50.1 µM.

`O=C(c1ccc(-c2ccc(O)nc2)s1)N1CCCCC1` gave a concentration for half-maximal inhibition (IC50) of over 50.1 µM.

`Cn1ncc(C(=O)N2CCN(S(C)(=O)=O)CC2)c1Cl` gave an IC50 of over 25.1 µM. To `CC(C)S(=O)(=O)N1CCN(C(=O)c2cnn(C)c2Cl)CC1` belongs over 50.1 µM. In the case of `Cn1ncc(C(=O)N2CCN(C(=O)c3ccco3)CC2)c1Cl` it was over 50.1 µM; in that of `CCn1c(SCC(=O)O)nnc1C(C)NC(=O)c1ccc(Cl)cc1` (stereo not drawn), over 50.1 µM.

The compound `CC(NC(=O)c1ccc(Cl)cc1)c1nnc(SCC(=O)O)n1C` (stereo not drawn) had a half-inhibitory concentration (IC50) of 29.3 µM. To `CCc1nnc(Nc2cc(C)nc(C3CN(C(=O)C(C)C)CCO3)c2)s1` (stereo not drawn) belongs over 50.1 µM. In the case of `CCc1nnc(Nc2cc(C)nc(C3CCN(c4ccncn4)C3)n2)s1` (stereo not drawn) it was over 50.1 µM; in that of `CCn1ccc(-c2cc(NCCCOc3ccccc3C)nc(C)n2)n1`, 11.7 µM. In the case of `Cc1ncc(CN2CCOC(c3ccc(-c4ccccc4F)cn3)C2)s1` (stereo not drawn), 9.61 µM corresponded to half-maximal inhibition (IC50). Consider `CN1CCN(Cc2c(-c3ccco3)[nH]c3ncccc23)CC1`, for which the 50% inhibitory concentration (IC50) is over 50.1 µM. In the case of `CC(=O)N1C[C@@H](c2ccsc2)[C@@H]2CN(Cc3ccccc3C)CC[C@@H]21` it was 18.9 µM; in that of `Cc1nc(C2(NCc3c(C)nn(C)c3N3CCOCC3)CCC2)no1`, 25.3 µM.

`CC(NCC(=O)Nc1ccc(N2CCCCCC2)cc1)c1cccs1` (stereo not drawn): the IC50 is 19.9 µM.

As to `OC(CNC1CCSCC1)c1cccc(OCc2ccccc2)c1` (stereo not drawn), the concentration for half-maximal inhibition (IC50) is 17.2 µM. Turning to `CN1CCC(NCC(O)c2cccc(OCc3ccccc3)c2)CC1` (stereo not drawn), the 50% inhibitory concentration (IC50) is 7.98 µM. In the case of `N#Cc1c(Cl)nsc1NCC1(c2ccccc2)CCC1` it was 5.72 µM; in that of `Cc1[nH]c2ccccc2c1-c1ccnc(N[C@@H](C)CO)n1`, 43.3 µM. To `Cc1[nH]c2ccccc2c1-c1ccnc(N[C@@H](CO)C(C)C)n1` belongs 19.8 µM; to `Cc1[nH]c2ccccc2c1-c1ccnc(N[C@H](CO)CC(C)C)n1`, over 50.1 µM; to `c1cc(-c2c[nH]nc2C2CCCCC2)nc(N2CCCCCC2)n1`, 6.23 µM. To `OC[C@H]1CCCN1c1nccc(-c2c[nH]nc2C2CCCCC2)n1` belongs 11.5 µM; to `NC(=O)C1CCN(c2nccc(-c3c[nH]nc3C3CCCCC3)n2)CC1`, 8.32 µM; to `Fc1ccc(-c2n[nH]cc2-c2ccnc(NCCN3CCCC3)n2)cc1`, 7.48 µM. On to `Cc1c(C(=O)NCC2CCN(C)C2)n(C)c2c(C)cccc12` (stereo not drawn), for which the IC50 was over 50.1 µM. In the case of `COCCN(Cc1ccccc1Cl)c1nc(CCN)nc2ccccc12` it was 13 µM. To `CC(C)N1CCCN(c2nc(-c3cccnc3)nc3c2cnn3C)CC1` belongs 5.84 µM; to `CC(C)(C)c1ccc(-n2ncc3c2CCCC3N)cc1` (stereo not drawn), 16.4 µM; to `Cc1cnc(NC(=O)c2cccc(CN(C)Cc3ncccc3C)c2)s1`, 13.6 µM. As to `CCC(C)Oc1ccc(CNCCc2c[nH]cn2)cc1Cl` (stereo not drawn), the midpoint of inhibition, the IC50, lay at 29 µM. `Cn1ccnc1CN1CCC(c2ccnc(-c3cccc(O)c3)c2)C1` (stereo not drawn) showed an IC50 of 37.9 µM. `O=C(NCCC1=CCCCC1)c1cc(-c2ccc(O)cc2)n[nH]1` had a 50% inhibitory concentration (IC50) of 0.391 µM.

On to `C[C@@H]1CN(C2CCN(c3ccccc3F)CC2)CC[C@]1(C)O`, for which the 50% inhibitory concentration (IC50) is over 50.1 µM.

In the case of `O=C(c1cc(=O)[nH][nH]1)N1CCCC2(CCC(=O)N(C3CCCC3)C2)C1` (stereo not drawn), the IC50 is over 50.1 µM. In the case of `CC(C)c1cc(CN(C)C(=O)C(C)N2CCc3ccccc3C2)no1` (stereo not drawn) it was over 50.1 µM. To `CC(C)[C@@H]1CN(c2ncc(F)cn2)C[C@H]1NS(=O)(=O)N(C)C` belongs over 50.1 µM; to `CO[C@H]1[C@@H]2CC[C@H]1CN(c1nc(C)nc3ccsc13)C2`, 6.77 µM; to `CNC(=O)C1(N(C)CCc2ccccc2)Cc2ccccc2C1`, 11.3 µM. To `Fc1cc(Cl)cnc1N1CCCC(c2nccn2Cc2ccccn2)C1` (stereo not drawn) belongs over 50.1 µM. `Cc1oc(-c2ccoc2)nc1CN1CCC[C@H]1CO` had a half-maximal inhibitory concentration (IC50) of 4.96 µM. As to `CS(=O)(=O)c1ccc(-c2cc(O)cc(CCC3CCCCN3)c2)cc1` (stereo not drawn), it took 16.6 µM to reach half-maximal inhibition (IC50). The compound `Nc1nc2c(c(NCc3nccs3)n1)CCN(CC1CCCC1)CC2` gave an IC50 of 7.85 µM. To `CCc1cnc(N2CCCC(CCC(N)=O)C2)nc1` (stereo not drawn) belongs over 50.1 µM; to `CCCc1nc(CN(CC)C(=O)c2onc3ccccc23)no1`, over 50.1 µM.

Regarding `CCCn1ncc(-c2ccnc(N[C@@H]3C[C@@H]4CC[C@H]3C4)n2)c1C`, 5.59 µM corresponded to half-maximal inhibition (IC50). In the case of `Cc1ccc(C)c(C(=O)N2CCC3(CCC(=O)N(CC(N)=O)C3)CC2)c1` it was over 50.1 µM.

With `O[C@@H]1CN(c2nc3ccccc3s2)CC[C@H]1c1ccc2c(c1)OCO2`, half-maximal inhibition (IC50) was put at 5.27 µM. As for `CSCCC1c2nc[nH]c2CCN1Cc1cc(Cl)ccc1O` (stereo not drawn), the IC50 is 12.3 µM. The compound `CCc1nc(C)cn1C(=O)Nc1ccccc1` showed an IC50 of 5.1 µM. In turn, `CC(C)=CCN1CCOC(Cn2nc(C)cc2C)C1` (stereo not drawn) had a concentration for half-maximal inhibition (IC50) of over 50.1 µM. As to `CN(C(=O)NCCCN1CCCC1)C1CCN(c2ccccc2)C1=O` (stereo not drawn), the half-maximal inhibitory concentration (IC50) is over 50.1 µM. In the case of `Cc1ccoc1C(=O)NC1CCN(Cc2csc3c(F)cccc23)CC1`, the IC50 is 8.38 µM. `CCc1cccc(OCC(=O)N2CCCC(n3cncn3)C2)c1` (stereo not drawn): inhibition was half-maximal at 28.2 µM (IC50). In turn, `CCc1nc2ccccc2c(=O)n1CC1(O)CCN(C(=O)COC)CC1` had an IC50 of over 50.1 µM. Turning to `COc1cccc(-c2noc(C3CCN(Cc4ccccc4C)C3)n2)c1` (stereo not drawn), it took 10.1 µM to reach half-maximal inhibition (IC50). `COc1c(CNC2(c3noc(C)n3)CCC2)c(C)nn1C` showed a concentration for half-maximal inhibition (IC50) of over 50.1 µM.

`CCOc1ccc2ccccc2c1CNCC1CCNCC1` gave an IC50 of 6.4 µM.

Take `Cc1ccc([C@]2(O)CC[C@H]3CN(Cc4cccc(Cl)c4Cl)C[C@H]32)nc1`: half-maximal inhibition (IC50) required 8.76 µM. Consider `Cc1nc2cc(C3CCN(Cc4cccc(F)c4F)C3)nn2c(O)c1C` (stereo not drawn), for which the IC50 was 10.5 µM.

In turn, `COc1c(N)c(C)nn1C` had a concentration for half-maximal inhibition (IC50) of over 50.1 µM.

As to `Cc1cccc(NC(=O)[C@@H]2CCCN2)n1`, the concentration for half-maximal inhibition (IC50) was over 50.1 µM. To `Cc1noc(CCCNC(=O)c2ccon2)n1` belongs over 50.1 µM. In the case of `C1CC(C2CNC2)CCO1`, the IC50 is over 50.1 µM.

As to `CC(Cc1ccco1)NS(=O)(=O)N1CCOCC1` (stereo not drawn), the IC50 was over 50.1 µM. In the case of `NC(=O)C[C@@H](N)c1ccccc1Cl` it was over 50.1 µM.

The compound `CCOc1ncccc1C(=O)NCC(C)N1CCCC1` (stereo not drawn) gave a half-maximal inhibitory concentration (IC50) of over 50.1 µM.

Compound `Nc1c[nH]nc1C(=O)NCc1cccc(Cl)c1` showed a half-inhibitory concentration (IC50) of over 50.1 µM.
